Assay results taken from US12714696B2, “Low dose fluralaner compositions for protection against parasitic invertebrate pest” (VIRBAC, priority 2019, dated 2026).
“And” between values parts separate entries of the source, which are not always exact repeats. Equal values may be shown once. Read-outs that look alike come from different tables or passages of the source.

Experiment: Pharmacokinetics after repeated oral administration of 35 μg/kg of fluralaner in dogs after feeding
Assay type: in vivo, beagle dogs
Conditions: for concentration at 24 h / concentration at 48 h / concentration at 72 h / concentration at 96 h / concentration at 120 h / concentration at 240 h / concentration at 360 h / concentration at 480 h: po, 35 μg/kg
Procedure: The first objective of the study was to obtain the pharmacokinetic parameters after repeated oral administration of 35 μg/kg of fluralaner in dogs, 30 to 35 minutes after feeding.
The second objective was to investigate the pharmacodynamics between the fluralaner plasmatic dose and the effectiveness against fleas. • IVP: Investigational Veterinary Product, is pure Fluralaner+DMSO (35 μg/kg on Days 0 to 3 (0.35 mL/kg)) • Control product is DMSO (0.35 mL/kg on Days 0 to 3)
On Days 0, 1, 2 and 3, all dogs assigned to group 2 received the Investigational Veterinary Product. On Days 0 to 3 all dogs in group 1 received the control product at a volume equal to the dogs in group 2. Dogs assigned to group 1 received the control product and served as Placebo controls. The quantity of Investigational Veterinary Product and control product administered was calculated according to the dog's individual body weight measured on Day −1.
Blood samples were taken from all dogs prior to Investigational Veterinary Product treatment or control product administration on Day 0 and on Days 1 (+24 hours), 2 (+48 hours), 3 (+72 hours), 4 (+96 hours), 5 (+120 hours), 10 (+240 hours), 15 (+360 hours), 20 (+480 hours), 24 (+576 hours) and Day 28 (+672 hours).
On days of administration of pre-Investigational Veterinary Product or Control Product, dogs were fed (the same dog food) approximately half of their normal daily ration 30 minutes to 35 minutes prior to administration. Food consumed by the time of administration was calculated and recorded. The remainder of their normal daily ration was fed immediately after administration.
The PK parameters of fluralaner were calculated using a non-compartmental approach.
The following rules were applied for the calculation of the PK parameters: • All the plasma concentrations, validated by the bioanalytical laboratory, were used for the PK analysis. • The actual blood sampling times were used throughout. • Concentrations below the Limit of Quantification (LOQ) value were considered as zero from time zero (pre-dose) up to the time at which the first quantifiable concentration above the LOQ value was observed. Concentrations below the LOQ value between two quantifiable concentrations were considered as missing. Trailing concentrations below the LOQ value were not used in calculations.
Cmax the observed maximum concentration in plasma measured after dosing.
tmax the time at which Cmax was apparent.
λz the terminal rate constant (λz) was estimated by log-linear regression analysis on data points visually assessed, to be on the terminal log-linear phase. For the slope of the terminal elimination phase to be accepted as reliable, the following criteria were used: • the terminal data points were apparently randomly distributed about a single straight line (on visual inspection), • a minimum of three data points, including the last measured data point and excluding Cmax, were available for the regression.
t1/2 the terminal plasma half-life (t1/2) was calculated according to the following equation: […]
AUC0-t the area under the concentration-time curve from time zero (pre-dose) to the time of last quantifiable concentration (t) was calculated using a linear trapezoidal method.
[AUC0-∞=AUC0-t+(Ct/λz)], where Ct was the observed concentration of drug for the last sample on the PK profile in which the drug was detected, and λz was as defined above.
The extrapolated area under the curve, expressed as a percentage of the total area, AUCinf, was also calculated as: Area Extra (%)=(AUC0-∞−AUC0-t)/AUC0-∞*100%.

## Cc1cc(C2=NOC(c3cc(Cl)cc(Cl)c3)(C(F)(F)F)C2)ccc1C(=O)NCC(=O)NCC(F)(F)F (centres unmarked) [fluralaner, Fluralaner]
24 h, oral 35 μg/kg Days 0-3, dogs
  fluralaner concentration levels, individual animal: 16.5 ng/mL and 16.9 ng/mL (2×) and 18.1 ng/mL and 19.0 ng/mL
48 h, oral 35 μg/kg Days 0-3, dogs
  fluralaner concentration levels, individual animal: 27.8 ng/mL and 32.2 ng/mL and 37.2 ng/mL and 35.2 ng/mL and 40.9 ng/mL
72 h, oral 35 μg/kg Days 0-3, dogs
  fluralaner concentration levels, individual animal: 60.6 ng/mL and 47.9 ng/mL and 61.0 ng/mL and 42.0 ng/mL and 57.7 ng/mL
96 h, oral 35 μg/kg Days 0-3, dogs
  fluralaner concentration levels, individual animal: 76.6 ng/mL and 91.6 ng/mL and 84.5 ng/mL and 71.8 ng/mL and 92.4 ng/mL
120 h, oral 35 μg/kg Days 0-3, dogs
  fluralaner concentration levels, individual animal: 60.1 ng/mL and 63.6 ng/mL and 55.6 ng/mL and 62.9 ng/mL and 70.0 ng/mL
240 h, oral 35 μg/kg Days 0-3, dogs
  fluralaner concentration levels, individual animal: 45.8 ng/mL and 34.1 ng/mL and 36.3 ng/mL and 51.6 ng/mL and 44.4 ng/mL
360 h, oral 35 μg/kg Days 0-3, dogs
  fluralaner concentration levels, individual animal: 39.2 ng/mL and 39.6 ng/mL and 43.5 ng/mL and 37.4 ng/mL and 35.2 ng/mL
480 h, oral 35 μg/kg Days 0-3, dogs
  fluralaner concentration levels, individual animal: 26.1 ng/mL and 17.1 ng/mL and 21.1 ng/mL and 26.6 ng/mL and 18.4 ng/mL
576 h, oral 35 μg/kg Days 0-3, dogs
  fluralaner concentration levels, individual animal: 22.0 ng/mL and 14.7 ng/mL and 15.0 ng/mL and 22.2 ng/mL and 13.3 ng/mL
672 h, oral 35 μg/kg Days 0-3, dogs
  fluralaner concentration levels, individual animal: 15.1 ng/mL and 9.1 ng/mL and 10.3 ng/mL and 16.0 ng/mL and 10.4 ng/mL
After the fourth dose of 35 μg/kg per day oral
  steady state concentrations: not reached
beagle, dog, plasma, 35 ug/kg, oral 35 μg/kg Days 0-3, dogs, read-out: Tmax, individual animal
  tmax: 96 h
beagle, dog, plasma, 24 h, oral 35 μg/kg Days 0-3, dogs, n=6, read-out: fluralaner concentration levels, GeoMean
  concentration at 24 h: 17.3 ng/mL
beagle, dog, plasma, 24 h, oral 35 μg/kg Days 0-3, dogs, n=6, read-out: fluralaner concentration levels, Maximum
  concentration at 24 h: 19 ng/mL
beagle, dog, plasma, 24 h, oral 35 μg/kg Days 0-3, dogs, n=6, read-out: fluralaner concentration levels, Mean
  concentration at 24 h: 17.4 ng/mL
beagle, dog, plasma, 24 h, oral 35 μg/kg Days 0-3, dogs, n=6, read-out: fluralaner concentration levels, Median
  concentration at 24 h: 16.9 ng/mL
beagle, dog, plasma, 24 h, oral 35 μg/kg Days 0-3, dogs, n=6, read-out: fluralaner concentration levels, Minimum
  concentration at 24 h: 18.5 ng/mL
beagle, dog, plasma, 24 h, oral 35 μg/kg Days 0-3, dogs, read-out: fluralaner concentration levels, individual animal
  concentration at 24 h: 16.7 ng/mL
beagle, dog, plasma, 48 h, oral 35 μg/kg Days 0-3, dogs, n=6, read-out: fluralaner concentration levels, GeoMean
  concentration at 48 h: 32.8 ng/mL
beagle, dog, plasma, 48 h, oral 35 μg/kg Days 0-3, dogs, n=6, read-out: fluralaner concentration levels, Maximum
  concentration at 48 h: 40.9 ng/mL
beagle, dog, plasma, 48 h, oral 35 μg/kg Days 0-3, dogs, n=6, read-out: fluralaner concentration levels, Mean
  concentration at 48 h: 33.2 ng/mL
beagle, dog, plasma, 48 h, oral 35 μg/kg Days 0-3, dogs, n=6, read-out: fluralaner concentration levels, Median
  concentration at 48 h: 33.7 ng/mL
beagle, dog, plasma, 48 h, oral 35 μg/kg Days 0-3, dogs, n=6, read-out: fluralaner concentration levels, Minimum
  concentration at 48 h: 26.1 ng/mL
beagle, dog, plasma, 48 h, oral 35 μg/kg Days 0-3, dogs, read-out: fluralaner concentration levels, individual animal
  concentration at 48 h: 26.1 ng/mL
beagle, dog, plasma, 72 h, oral 35 μg/kg Days 0-3, dogs, n=6, read-out: fluralaner concentration levels, GeoMean
  concentration at 72 h: 51.7 ng/mL
beagle, dog, plasma, 72 h, oral 35 μg/kg Days 0-3, dogs, n=6, read-out: fluralaner concentration levels, Maximum
  concentration at 72 h: 61 ng/mL
beagle, dog, plasma, 72 h, oral 35 μg/kg Days 0-3, dogs, n=6, read-out: fluralaner concentration levels, Mean
  concentration at 72 h: 52.3 ng/mL
beagle, dog, plasma, 72 h, oral 35 μg/kg Days 0-3, dogs, n=6, read-out: fluralaner concentration levels, Median
  concentration at 72 h: 52.8 ng/mL
beagle, dog, plasma, 72 h, oral 35 μg/kg Days 0-3, dogs, n=6, read-out: fluralaner concentration levels, Minimum
  concentration at 72 h: 42 ng/mL
beagle, dog, plasma, 72 h, oral 35 μg/kg Days 0-3, dogs, read-out: fluralaner concentration levels, individual animal
  concentration at 72 h: 44.6 ng/mL
beagle, dog, plasma, 96 h, oral 35 μg/kg Days 0-3, dogs, n=6, read-out: fluralaner concentration levels, GeoMean
  concentration at 96 h: 84 ng/mL
beagle, dog, plasma, 96 h, oral 35 μg/kg Days 0-3, dogs, n=6, read-out: fluralaner concentration levels, Maximum
  concentration at 96 h: 92.4 ng/mL
beagle, dog, plasma, 96 h, oral 35 μg/kg Days 0-3, dogs, n=6, read-out: fluralaner concentration levels, Mean
  concentration at 96 h: 84.4 ng/mL
beagle, dog, plasma, 96 h, oral 35 μg/kg Days 0-3, dogs, n=6, read-out: fluralaner concentration levels, Median
  concentration at 96 h: 87 ng/mL
beagle, dog, plasma, 96 h, oral 35 μg/kg Days 0-3, dogs, n=6, read-out: fluralaner concentration levels, Minimum
  concentration at 96 h: 71.8 ng/mL
beagle, dog, plasma, 96 h, oral 35 μg/kg Days 0-3, dogs, read-out: fluralaner concentration levels, individual animal
  concentration at 96 h: 89.4 ng/mL
beagle, dog, plasma, 120 h, oral 35 μg/kg Days 0-3, dogs, n=6, read-out: fluralaner concentration levels, GeoMean
  concentration at 120 h: 63.8 ng/mL
beagle, dog, plasma, 120 h, oral 35 μg/kg Days 0-3, dogs, n=6, read-out: fluralaner concentration levels, Maximum
  concentration at 120 h: 72.3 ng/mL
beagle, dog, plasma, 120 h, oral 35 μg/kg Days 0-3, dogs, n=6, read-out: fluralaner concentration levels, Mean
  concentration at 120 h: 64.1 ng/mL
beagle, dog, plasma, 120 h, oral 35 μg/kg Days 0-3, dogs, n=6, read-out: fluralaner concentration levels, Median
  concentration at 120 h: 63.2 ng/mL
beagle, dog, plasma, 120 h, oral 35 μg/kg Days 0-3, dogs, n=6, read-out: fluralaner concentration levels, Minimum
  concentration at 120 h: 55.6 ng/mL
beagle, dog, plasma, 120 h, oral 35 μg/kg Days 0-3, dogs, read-out: fluralaner concentration levels, individual animal
  concentration at 120 h: 72.3 ng/mL
beagle, dog, plasma, 240 h, oral 35 μg/kg Days 0-3, dogs, n=6, read-out: fluralaner concentration levels, GeoMean
  concentration at 240 h: 43.9 ng/mL
beagle, dog, plasma, 240 h, oral 35 μg/kg Days 0-3, dogs, n=6, read-out: fluralaner concentration levels, Maximum
  concentration at 240 h: 54.9 ng/mL
beagle, dog, plasma, 240 h, oral 35 μg/kg Days 0-3, dogs, n=6, read-out: fluralaner concentration levels, Mean
  concentration at 240 h: 44.5 ng/mL
beagle, dog, plasma, 240 h, oral 35 μg/kg Days 0-3, dogs, n=6, read-out: fluralaner concentration levels, Median
  concentration at 240 h: 45.1 ng/mL
beagle, dog, plasma, 240 h, oral 35 μg/kg Days 0-3, dogs, n=6, read-out: fluralaner concentration levels, Minimum
  concentration at 240 h: 34.1 ng/mL
beagle, dog, plasma, 240 h, oral 35 μg/kg Days 0-3, dogs, read-out: fluralaner concentration levels, individual animal
  concentration at 240 h: 54.9 ng/mL
beagle, dog, plasma, 360 h, oral 35 μg/kg Days 0-3, dogs, n=6, read-out: fluralaner concentration levels, GeoMean
  concentration at 360 h: 39.5 ng/mL
beagle, dog, plasma, 360 h, oral 35 μg/kg Days 0-3, dogs, n=6, read-out: fluralaner concentration levels, Maximum
  concentration at 360 h: 43.5 ng/mL
beagle, dog, plasma, 360 h, oral 35 μg/kg Days 0-3, dogs, n=6, read-out: fluralaner concentration levels, Mean
  concentration at 360 h: 39.6 ng/mL
beagle, dog, plasma, 360 h, oral 35 μg/kg Days 0-3, dogs, n=6, read-out: fluralaner concentration levels, Median
  concentration at 360 h: 39.4 ng/mL
beagle, dog, plasma, 360 h, oral 35 μg/kg Days 0-3, dogs, n=6, read-out: fluralaner concentration levels, Minimum
  concentration at 360 h: 35.2 ng/mL
beagle, dog, plasma, 360 h, oral 35 μg/kg Days 0-3, dogs, read-out: fluralaner concentration levels, individual animal
  concentration at 360 h: 42.8 ng/mL
beagle, dog, plasma, 480 h, oral 35 μg/kg Days 0-3, dogs, n=6, read-out: fluralaner concentration levels, GeoMean
  concentration at 480 h: 22.1 ng/mL
beagle, dog, plasma, 480 h, oral 35 μg/kg Days 0-3, dogs, n=6, read-out: fluralaner concentration levels, Maximum
  concentration at 480 h: 26.6 ng/mL
